Here are results for four molecules from patent US11661577B2, “Co-incubating confined microbial communities” (CALIFORNIA INSTITUTE OF TECHNOLOGY, priority 2007, dated 2023).

For experiment [1], the system named is MSSA (Staphylococcus aureus ATCC# 25923). As to the kind of experiment: Antibiotic testing on Mueller Hinton agar plates. The note with it: 30° C., even after 40 h.
Experimental: Plates were made from Mueller Hinton Agar (Fluka, Switzerland). After autoclaving, the agar was cooled and antibiotics were added and 20 mL plates were poured. For CFX and OXA testing, 50 μL of MRSA and MSSA bacterial culture at 4×10^3 CFU/mL was spread onto separate TSA plates. The plates were incubated at 30° C. After 16.5 h and 40 h the plates were examined for colonies. […] For AMP, ERT, LVF, and VCM, 5 μL of culture at 2×10^4 CFU/mL were spread onto plates, and the plates were incubated at 37° C. for 12 h. After 12 h, growth of colonies on the plates was considered resistance to the antibiotic and no colonies on the plates were considered sensitivity to the antibiotic.
Experiment [2] has as its system Methicillin Resistant S. aureus (MRSA). Description: MIC determination in plugs. Conditions: Staphylococcus aureus, 6.75 h, read-out: MIC of CFX for MRSA.
Experiment [3] shares this test system. The note with it: CFX 24 mg/L; stated as known; cited from earlier work.
Experiment [4] has as its system Methicillin Sensitive S. aureus (MSSA). The note with it: CFX 24 mg/L; stated as known; cited from earlier work.
Experiment [5] shares this test system. As to the kind of experiment: MIC determination in plugs. Conditions: Staphylococcus aureus, 6.5 h, read-out: MIC of CFX for MSSA.
The test system of a further experiment is MSSA. Description: Plug-based drug screening in human blood plasma/LB. The note with it: 1:1 human blood plasma/LB; breakpoint concentration; 7.5 h at 37° C.
A further experiment concerns S. aureus strain (MRSA). As to the kind of experiment: Macro-scale experiments (negative control check). The note with it: data not shown. It is filed as cell-based, Staphylococcus aureus.
Experiment [6] relates to Methicillin Resistant S. aureus (MRSA, ATCC# 43300). Description: Plug-based microfluidic antibiotic susceptibility screen (stochastic confinement, alamarBlue viability indicator). It is filed as cell-based, Staphylococcus aureus. Conditions: breakpoint concentration, 4 nL plugs, 4×10^5 CFU/mL, 7 h at 37° C. In general terms: Resazurin is reduced to fluorescent resorufin, in cell work by metabolically active cells.

As a reminder, the MIC is the smallest concentration in the dilution series that meets the test's criterion for growth inhibition.

Molecules are shown by their SMILES.

With `CO[C@@]1(NC(=O)Cc2cccs2)C(=O)N2C(C(=O)O)=C(COC(N)=O)CS[C@@H]21` [CFX, cefoxitin], the “Appearance of MSSA colonies on antibiotic plates” value in experiment [1] is recorded as “did not appear”. Besides, the MIC in experiment [2] was less than 8000 µg/mL; in experiment [5], less than 4000 µg/mL. Also, the “Inhibition of MRSA at the positive control concentration” value in experiment [3] is given as “inhibited”. Also, the “Inhibition of MSSA at the positive control concentration” value in experiment [4] is on record as “inhibited”.

Take `CC1(C)S[C@@H]2[C@H](NC(=O)[C@H](N)c3ccccc3)C(=O)N2[C@H]1C(=O)O` [AMP, ampicillin]: the “Increase in fluorescence intensity of plugs containing MSSA and antibiotic” value in the experiment with MSSA is given as “no increase in fluorescence intensity”.

In the case of `Cc1onc(-c2ccccc2)c1C(=O)N[C@@H]1C(=O)N2[C@@H]1SC(C)(C)[C@@H]2C(=O)O` [OXA, oxacillin], the “Appearance of MSSA colonies on antibiotic plates” value in experiment [1] is “did not appear”.

In the case of `CN[C@H](CC(C)C)C(=O)N[C@H]1C(=O)N[C@@H](CC(N)=O)C(=O)N[C@H]2C(=O)N[C@H]3C(=O)N[C@H](C(=O)N[C@H](C(=O)O)c4cc(O)cc(O)c4-c4cc3ccc4O)[C@H](O)c3ccc(c(Cl)c3)Oc3cc2cc(c3O[C@@H]2O[C@H](CO)[C@@H](O)[C@H](O)[C@H]2O[C@H]2C[C@](C)(N)[C@H](O)[C@H](C)O2)Oc2ccc(cc2Cl)[C@H]1O` [VCM, vancomycin], in the experiment on S. aureus strain (MRSA), the “Inhibition of the S. aureus strain in macro-scale experiments” value is recorded as “inhibited”. Besides, the “Susceptibility of MRSA to antibiotic (increase in fluorescence intensity of plugs versus 3 times the VCM baseline)” value is reported as “sensitive” in experiment [6] and “not resistant” in experiment [6] (listed as Vancomycin).
